Values quoted from earlier work, collected in patent US8865753B2, “Compounds as cannabinoid receptor ligands” (priority 2007, dated 2014).

Assays:
animal models = animal models of acute thermal pain, persistent pain, inflammatory pain and neuropathic pain
rodent = rodent models of neuropathic, incisional, and both chronic and acute inflammatory pain
rat = rat formalin model of persistent pain; Hanus et al. 1999
microglial = settings: in vitro; Ramirez et al. 2005
[1] = system: apolipoprotein E knockout mice; settings: Steffens et al. 2005
osteoclast = settings: Ralston et al. 2005
mice = settings: model for post-menopausal osteoporosis, Ralston et al. 2005

Molecule: CN1CCCCC1Cn1cc(C(=O)c2cc([N+](=O)[O-])ccc2I)c2ccccc21 (stereo not drawn) [AM-1241]
- analgesic efficacy (animal models): robust analgesic efficacy

Molecule: COc1ccc2c(c1)c(CCN1CCOCC1)c(C)n2C(=O)c1cccc(Cl)c1Cl [GW405833]
- efficacy in pain models (rodent): efficacious

Molecule: CCCCCCC(C)(C)c1cc(OC)c([C@@H]2C=C(CO)[C@@H]3C[C@H]2C3(C)C)c(OC)c1 [HU-308]
- antinociceptive response (rat): elicits an antinociceptive response

Molecule: CCCC(C)(C)c1ccc2c(c1)OC(C)(C)[C@@H]1CC=C(C)C[C@@H]21 [JWH-133]
- β-amyloid-induced microglial activation and neurotoxicity (microglial): abrogated

Molecule: (−)-Δ^9-Tetrahydrocannabinol [THC]
- progression of atherosclerotic lesions ([1]; low doses): slowed the progression of atherosclerotic lesions

Molecule: SR144528
- blockade of the effects of JWH-133 (microglial): blocked
- osteoclast activity (osteoclast): inhibit osteoclast activity
- ovariectomy-induced bone loss (mice): reverse ovariectomy-induced bone loss
- inhibition of the effects of THC on atherosclerotic lesions [1]: inhibited
